Test results as given in paper PMC9865752, “Design and Synthesis of (Z)-2-(Benzylamino)-5-benzylidenethiazol-4(5H)-one Derivatives as Tyrosinase Inhibitors and Their Anti-Melanogenic and Antioxidant Effects” (Molecules, 2023).

Legend:
[1] = tested on: B16F10 cells; assay: Measurement of extracellular and intracellular melanin levels; format: cell-based, murine; conditions: α-MSH plus IBMX stimulated B16F10 cells, 72 h
Procedure: To investigate the effects of derivative 8 on extracellular and intracellular melanin levels in B16F10 cells, the cells were treated with various concentrations (5, 10, and 20 µM) of derivative 8 for 1 h, in addition to co-treatment with α-MSH (0.5 µM) and 3-isobutyl-1-methylxanthine (IBMX; 200 µM) to enhance melanin biosynthesis in B16F10 cells. After 72 h of incubation, the effects of 8 on extracellular and intracellular melanin levels were determined by measuring the melanin absorbance in the culture media and cell lysates, respectively, at 405 nm using a microplate reader.
The effect of 8 on melanin production was measured using a standard melanin content assay, with minor modifications. Briefly, B16F10 cells were seeded at a density of 1 × 10^5 cells per well and allowed to adhere to the well bottoms for 24 h under the conditions used for cell cultures. […] After incubation for 72 h at 37 °C in a 5% CO2 atmosphere, melanin levels were determined. To measure the extracellular melanin levels, the absorbance of each well of the culture medium was measured at 405 nm. […] Cultured cells were washed twice with PBS, and the pellets obtained were dissolved using 1 N NaOH solution (200 µL, 10% DMSO) at 60 °C for 1 h. Cell lysates were transferred to the wells of a 96-well plate, and the optical density of melanin dissolved in each well was measured at 405 nm in aqueous DMSO solution using a microplate reader (VersaMax; Molecular Devices).

[2] = biological target: T1, B16F10 cellular tyrosinase (Mus musculus, UniProt P11344); assay: Cellular anti-tyrosinase activity assay; format: cell-based, murine; conditions: α-MSH plus IBMX stimulated B16F10 cells, 72 h
T1 construct: host or cells: B16F10 murine melanoma cells
T1 sequence (P11344 19-533): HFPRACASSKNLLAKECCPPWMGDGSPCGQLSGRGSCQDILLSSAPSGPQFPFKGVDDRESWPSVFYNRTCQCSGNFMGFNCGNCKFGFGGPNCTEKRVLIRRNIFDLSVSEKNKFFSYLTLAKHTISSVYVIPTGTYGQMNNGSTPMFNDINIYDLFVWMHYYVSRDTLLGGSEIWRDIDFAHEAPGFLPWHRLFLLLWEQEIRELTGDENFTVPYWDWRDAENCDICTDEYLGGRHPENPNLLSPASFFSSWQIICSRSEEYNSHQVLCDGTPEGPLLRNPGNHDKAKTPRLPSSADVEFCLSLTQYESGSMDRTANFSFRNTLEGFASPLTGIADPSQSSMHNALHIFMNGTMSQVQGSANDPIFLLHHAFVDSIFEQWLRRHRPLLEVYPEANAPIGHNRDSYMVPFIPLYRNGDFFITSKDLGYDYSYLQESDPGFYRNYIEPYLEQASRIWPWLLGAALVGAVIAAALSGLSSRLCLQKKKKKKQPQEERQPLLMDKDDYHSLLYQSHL
Procedure: Briefly, B16F10 cells were seeded at 1 × 10^5 cells/well in a 6-well plate and allowed to adhere to well bottoms for 24 h. […] Then, a stimulator (0.5 µM α-MSH plus 200 µM IBMX) was applied to increase the cellular tyrosinase activity, and the cells were cultured for 72 h under the conditions used for cell cultures. Cultured cells were washed twice with PBS and exposed to an aliquot (100 µL) of the lysis buffer solution containing 20% Triton X-100 (5 µL), 50 mM phosphate buffer (pH 6.5, 90 µL), and 2 mM phenylmethylsulfonyl fluoride (5 µL) to lyse the cultured cells for 30 min at −80 °C. After defrosting, the cell lysates were transferred to microcentrifuge tubes and centrifuged for 30 min at 4 °C and 12,000 rpm, and the supernatants (80 µL) in each well were mixed with 20 µL L-dopa (2 mg/mL) and incubated at 37 °C for 10 min. The absorbance of dopachrome was measured at 475 nm using a microplate reader (VersaMax; Molecular Devices).

[3] = ABTS radical scavenging assay; conditions: test samples 100 µM; 2 min in the dark
Procedure: An antioxidant assay using ABTS is also commonly used to assess the antioxidant activities of compounds. Donation of one electron from ABTS to potassium persulfate generates the ABTS radical cation. An ABTS radical scavenging activity assay was performed using 100 µM of BABT derivatives or Trolox (a positive reference control) by mixing test samples with ABTS radical cations obtained from a reaction of potassium persulfate and ABTS. ABTS radical scavenging activity was assessed by measuring the optical density at 734 nm after leaving the test sample–ABTS radical cation mixture in the dark for 2 min.
According to a previously described method, with minor modifications, the ABTS radical scavenging activities of BABT derivatives 1–14 were assessed. Briefly, an ABTS radical solution was prepared by mixing 10 mL of aqueous ABTS solution (7 mM) with 10 mL of potassium persulfate aqueous solution (2.45 mM), and the mixture was kept for 11–15 h in the dark at room temperature until the absorbance remained constant. Prior to the antioxidant assay experiments, the ABTS radical solution was diluted with water to adjust the absorbance at 734 nm to 0.70 ± 0.02. A 10 µL aliquot of BABT derivatives or Trolox at a concentration of 1000 µM was added to 90 µL of ABTS+ free radical solution in each well of a 96-well plate and incubated for 2 min in the dark at ambient temperature. The absorbance of each well was measured at 734 nm using a microplate reader (VersaMax; Molecular Devices). The ABTS+ radical scavenging activities of BABT derivatives were compared to those of Trolox. All experiments were carried out independently, thrice.

[4] = SIN-1-induced ROS scavenging assay; conditions: 20 µM; SIN-1 as ROS generator; DCFH-DA probe
Text: The scavenging activities of the BABT derivatives 1–14 against ROS and peroxynitrite (ONOO^−) were investigated because the antioxidant activities of the compounds may modulate melanogenesis. To measure the ROS scavenging activities of BABT derivatives, 2′,7′-dichlorodihydrofluorescein diacetate (DCFH-DA) and 3-morpholinosydnonimine (SIN-1) were used as a fluorogenic probe and ROS generator, respectively. The reaction of DCFH-DA with esterase produces 2′,7′-dichlorodihydrofluorescein (DCFH), which generates the fluorescent compound 2′,7′-dichlorofluorescein (DCF) by reacting with ROS produced by SIN-1. Therefore, ROS scavenging activities were determined by measuring the DCF fluorescence remaining after the BABT derivatives scavenged the ROS generated by SIN-1. […] BABT derivatives and Trolox, the positive control, were used at a concentration of 20 µM.
The ROS scavenging activities of the BABT derivatives were measured using an oxidant-sensitive fluorescent probe. Derivatives or Trolox (10 µL; final concentration: 20 µM) were seeded in a black 96-well plate. Then, 10 µL of SIN-1 (10 µM) was added to induce radical species generation and mixed with 180 µL of sodium phosphate buffer (pH 7.4) containing 12.5 µM DCF-DA and 600 units of esterase. Fluorescence intensity was measured at emission and excitation wavelengths of 535 and 485 nm, respectively, using a fluorescence microplate reader (Berthold Technologies GmbH & Co., Wien, Austria). Trolox was used as the positive control.

Structure (SMILES): O=C1N=C(NCc2ccccc2)S/C1=C\c1ccc(O)cc1O [Compound 8, (Z)-2-(benzylamino)-5-(2,4-dihydroxybenzylidene)thiazol-4(5H)-one]
- extracellular melanin levels compared to untreated control ([1]; 5 µM): 1.22 fold
- intracellular melanin levels (in words) ([1]; 5 µM): more potent inhibitory activity on melanin production than kojic acid at 20 µM
- extracellular melanin levels compared to untreated control ([1]; 10 µM): 1.03 fold
- extracellular melanin levels compared to untreated control ([1]; 20 µM): 1.00 fold
- intracellular melanin levels (in words) ([1]; 20 µM): lower than those in the untreated control
- inhibition of cellular tyrosinase activity (in words) ([2]; 5 µM): more than that by kojic acid at 20 µM
- cellular tyrosinase activity compared to untreated control ([2]; 20 µM): 1.7 fold
- ABTS radical scavenging activity, % inhibition [3]: 96%
- ROS scavenging activity (in words) [4]: did not show significant ROS scavenging effect
